# *1 amine or outer side, *2 acyl side, *3 side chain or, on linkers, in order; H or OH if unused. Where a SMILES comes first, the peptide text is derived from it. Side-chain parts run from the residue outwards. [ ]: non-standard residue; d: D form. The star is where a group is joined. C20 diacid = O=C(O)CCCCCCCCCCCCCCCCCCC(=O)*; γGlu = O=C(O)[C@H](CCC(=O)[*:2])N[*:1]; εLys = N[C@@H](CCCCN[*:1])C(=O)[*:2]; NMeI = CC[C@H](C)[C@H](NC)C(=O)O; pGlu = O=C1CC[C@@H](C(=O)O)N1; αMeL = CC(C)C[C@](C)(N)C(=O)O; AEEA = NCCOCCOCC(=O)O; Aib = CC(C)(N)C(=O)O
# Key:
# CD4+ T cells = assay: T cell proliferation assay; assay type: cell-based, human; settings: for T Cell Proliferation Assay: protein 7-10 donors with diverse MHC: responding donors / donors tested
# Protocol: This assay assessed the ability of tested antibodies or tested MAPPS peptides to activate CD4+ T cells by inducing cellular proliferation. CD8+ T cell depleted PBMC's were prepared and labeled with CFSE. Each sample was tested with media control, keyhole limpet haemocyanin (KLH; positive clinical benchmark control), tested antibodies, or tested MAPPS peptides. Cultures were incubated for 7 days. On day 7, samples were analyzed by flow cytometry.
# human CRHR1 = target: T1, human CRHR1 (Homo sapiens, UniProt P34998); assay: Human CRHR1 cAMP assay (HTRF) in HEK293 cells stably expressing human CRHR1; assay type: cell-based; settings: HEK293 cells overexpressing human CRHR1; relative EC50, maximum 66 nM human UCN1; mean ± SE; read-out: hCRHR1 cAMP EC50 (pM, ± SE)
# T1 construct: expressed in transfected cells
# T1 sequence (P34998 24-415): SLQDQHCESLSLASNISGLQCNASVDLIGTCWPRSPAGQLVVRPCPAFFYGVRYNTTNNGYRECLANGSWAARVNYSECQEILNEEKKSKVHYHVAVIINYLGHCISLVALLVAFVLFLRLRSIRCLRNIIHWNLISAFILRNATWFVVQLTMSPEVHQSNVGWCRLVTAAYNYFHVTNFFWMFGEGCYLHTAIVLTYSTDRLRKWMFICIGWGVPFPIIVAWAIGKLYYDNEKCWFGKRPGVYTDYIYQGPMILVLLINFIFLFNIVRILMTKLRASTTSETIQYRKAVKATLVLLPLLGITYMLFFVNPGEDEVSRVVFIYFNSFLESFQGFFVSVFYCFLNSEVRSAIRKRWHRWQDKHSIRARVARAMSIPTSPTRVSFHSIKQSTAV
# Method in brief: (§1)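 Peptides were tested as 1:3 dilution series on thawed HEK293 cells stably expressing the receptor, in MEM with 0.1% casein, 5 mM HEPES pH 7.4 and 0.25 mM IBMX. CRHR1 cells (25,000/well) were incubated 1 h at 37° C; CRHR2 cells (5,000/well) 30 min at room temperature. cAMP was read by HTRF (665/620 nm) against a cAMP standard curve.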
# human CRHR2 = target: T2, human CRHR2 (Homo sapiens, UniProt Q13324); assay: Human CRHR2 cAMP assay (HTRF) in HEK293 cells stably expressing human CRHR2; assay type: cell-based; settings: HEK293 cells overexpressing human CRHR2; relative EC50, maximum 10 nM human UCN2; mean ± SE; read-out: hCRHR2 cAMP EC50 (pM, ± SE)
# T2 construct: expressed in transfected cells
# T2 sequence (Q13324 1-438 isoform Q13324-2): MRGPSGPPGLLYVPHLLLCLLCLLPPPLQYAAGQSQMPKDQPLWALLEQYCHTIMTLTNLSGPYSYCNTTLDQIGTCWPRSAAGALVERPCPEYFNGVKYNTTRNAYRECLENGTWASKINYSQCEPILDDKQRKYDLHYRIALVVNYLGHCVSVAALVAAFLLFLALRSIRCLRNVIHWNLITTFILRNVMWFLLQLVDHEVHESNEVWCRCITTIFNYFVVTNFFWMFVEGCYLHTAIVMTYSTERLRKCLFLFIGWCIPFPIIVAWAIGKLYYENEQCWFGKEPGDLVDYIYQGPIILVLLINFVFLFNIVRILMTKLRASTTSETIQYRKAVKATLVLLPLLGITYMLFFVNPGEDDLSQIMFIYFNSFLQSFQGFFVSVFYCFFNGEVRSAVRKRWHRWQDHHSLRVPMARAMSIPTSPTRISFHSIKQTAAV
# Method in brief: as §1
EC50 (human CRHR1) [pM],EC50 (human CRHR2) [pM],Compound,"CD4+ T cell proliferation response in donors (CD4+ T cells; CD8+ T cell depleted PBMCs, 7 days, ten donors)",T Cell Proliferation Assay: protein 7-10 donors with diverse MHC (CD4+ T cells)
> 1e+07,29.8 ± 2.5,CC[C@H](C)[C@H](NC)C(=O)N[C@H](C(=O)N[C@@H](CC(C)C)C(=O)N[C@@H](CO)C(=O)N[C@@H](CC(C)C)C(=O)N[C@@H](CC(=O)O)C(=O)N[C@H](C(=O)N1CCC[C@H]1C(=O)N[C@H](C(=O)NCC(=O)N[C@@H](CC(C)C)C(=O)N[C@@H](CC(C)C)C(=O)N[C@@H](CCC(N)=O)C(=O)N[C@H](C(=O)N[C@@H](CC(C)C)C(=O)N[C@@H](CC(C)C)C(=O)N[C@@H](CCC(=O)O)C(=O)N[C@@H](CCC(N)=O)C(=O)N[C@@H](CCC(=O)O)C(=O)N[C@@H](CCCCN)C(=O)N[C@@H](CCC(N)=O)C(=O)N[C@@H](CCC(=O)O)C(=O)N[C@@H](CCCCN)C(=O)N[C@@H](CCC(=O)O)C(=O)N[C@@H](CCCCN)C(=O)N[C@@H](CCC(N)=O)C(=O)N[C@@H](CCC(N)=O)C(=O)N[C@@H](C)C(=O)N[C@@H](CCCCNC(=O)COCCOCCNC(=O)COCCOCCNC(=O)CC[C@H](NC(=O)CC[C@H](NC(=O)CCCCCCCCCCCCCCCCCCC(=O)O)C(=O)O)C(=O)O)C(=O)N[C@H](C(=O)N[C@@H](CC(N)=O)C(=O)N[C@@H](C)C(=O)N[C@@H](CCC(N)=O)C(=O)N[C@H](C(=O)N[C@@H](CC(C)C)C(=O)N[C@@H](C)C(=O)N[C@@H](CCC(N)=O)C(=O)N[C@H](C(N)=O)C(C)C)[C@@H](C)CC)[C@@H](C)O)[C@@H](C)CC)[C@@H](C)CC)C(C)C)C(C)C [SEQ ID NO: 54] (H-[NMeI]VLSLDVPIGLLQILLEQEKQEKEKQQAK([AEEA-AEEA-γGlu-γGlu-C20 diacid])TNAQILAQV-NH2),elicited a response in four out of ten donors,4/10
> 1e+07,11.3 ± 3,"[pGlu]GSPSGIVTS[αMeL]DVPT[Aib][αMeL]LQKILEQERAEKARQQAK([γGlu-AEEA-εLys-C20 diacid])EAAEILAQV-NH2 [SEQ ID NO: 22, Pyr-GSPSGIVTS αMeL DVPT Aib αMeL LQKILEQERAEKARQQAK(γE-(2-[2-(2-Amino-ethoxy)-ethoxy]-acetyl)-ϵK-CO-(CH2)18-CO2H)EAAEILAQV-NH2]",–,0/9
> 1e+07,6.9 ± 0.5,{C20 diacid-εLys-AEEA-γGlu}-GSPSIVTS[αMeL]DVPT[Aib][αMeL]LQKILEQERAEKARQQATEAAEILAQV-NH2 [SEQ ID NO: 25],–,0/9
> 1e+07,9.3 ± 1.1,"Ac-GSPSIVTS[αMeL]DVPT[Aib][αMeL]LQKILEQERAEKARQQAK([γGlu-AEEA-εLys-C20 diacid])EAAEILAQV-NH2 [SEQ ID NO: 1, Ac-GSPSIVTS αMeL DVPT Aib αMeL LQKILEQERAEKARQQAK(γE-(2-[2-(2-Amino-ethoxy)-ethoxy]-acetyl)-ϵK-CO-(CH2)18-CO2H)EAAEILAQV-NH2]",–,0/9

# From patent US20250163119A1, “COMPOUNDS FOR THE TREATMENT OF DIABETES OR OBESITY” (Eli Lilly and Company, priority 2023, published 2025)
